Results: the NIST ThermoML archive (doi:10.1016/j.jct.2019.02.028)

Test: xn = mol fraction of the nth substance listed
Conditions: Gas, Burnett expansion method

C=C(F)C(F)(F)F [2,3,3,3-tetrafluoro-1-propene] + FCF
Conditions | mass density [kg/m3]
298.75 K, 572.1 kPa, x2 = 0.119 | 28.04
298.79 K, 1055.5 kPa, x2 = 0.698 | 36.11
298.8 K, 475.09 kPa, x2 = 0.449 | 18
298.8 K, 476.95 kPa, x2 = 0.259 | 20.72
298.8 K, 518.4 kPa, x2 = 0.698 | 16.01
298.8 K, 684.19 kPa, x2 = 0.449 | 27.04
298.82 K, 748.46 kPa, x2 = 0.698 | 24.04
298.86 K, 487.12 kPa, x2 = 0.874 | 12.55
298.86 K, 1393.8 kPa, x2 = 0.874 | 42.51
298.87 K, 1004.6 kPa, x2 = 0.874 | 28.3
298.93 K, 704.35 kPa, x2 = 0.874 | 18.84
308.66 K, 1524.8 kPa, x2 = 0.698 | 54.21
308.68 K, 1108.2 kPa, x2 = 0.698 | 36.09
308.69 K, 597.54 kPa, x2 = 0.119 | 28.02
308.7 K, 493.92 kPa, x2 = 0.449 | 17.99
308.7 K, 496.45 kPa, x2 = 0.259 | 20.72
308.71 K, 538.99 kPa, x2 = 0.698 | 16
308.71 K, 714.14 kPa, x2 = 0.449 | 27.02
308.71 K, 842.28 kPa, x2 = 0.119 | 42.09
308.72 K, 712.34 kPa, x2 = 0.259 | 31.11
308.72 K, 997.47 kPa, x2 = 0.259 | 46.73
308.73 K, 780.62 kPa, x2 = 0.698 | 24.03
308.74 K, 1976.1 kPa, x2 = 0.874 | 63.81
308.76 K, 1011.1 kPa, x2 = 0.449 | 40.58
308.77 K, 1470.2 kPa, x2 = 0.874 | 42.48
308.78 K, 1051.3 kPa, x2 = 0.874 | 28.28
308.79 K, 506.01 kPa, x2 = 0.874 | 12.54
308.82 K, 733.43 kPa, x2 = 0.874 | 18.83
313.6 K, 1566.5 kPa, x2 = 0.698 | 54.19
313.64 K, 503.35 kPa, x2 = 0.449 | 17.98
313.64 K, 1134 kPa, x2 = 0.698 | 36.08
313.65 K, 610.01 kPa, x2 = 0.119 | 28.01
313.66 K, 506.36 kPa, x2 = 0.259 | 20.71
313.66 K, 728.88 kPa, x2 = 0.449 | 27.01
313.67 K, 796.71 kPa, x2 = 0.698 | 24.02
313.68 K, 549.32 kPa, x2 = 0.698 | 15.99
313.68 K, 727.83 kPa, x2 = 0.259 | 31.11
313.68 K, 862.42 kPa, x2 = 0.119 | 42.07
313.68 K, 1021.8 kPa, x2 = 0.259 | 46.73
313.7 K, 1507.4 kPa, x2 = 0.874 | 42.47
313.7 K, 2038.5 kPa, x2 = 0.874 | 63.79
313.72 K, 1034.8 kPa, x2 = 0.449 | 40.57
313.72 K, 1074 kPa, x2 = 0.874 | 28.28
313.74 K, 515.35 kPa, x2 = 0.874 | 12.53
313.79 K, 747.77 kPa, x2 = 0.874 | 18.83
318.62 K, 1609.8 kPa, x2 = 0.698 | 54.18
318.68 K, 1159.3 kPa, x2 = 0.698 | 36.07
318.7 K, 2100 kPa, x2 = 0.874 | 63.77
318.72 K, 512.99 kPa, x2 = 0.449 | 17.98
318.72 K, 882.63 kPa, x2 = 0.119 | 42.06
318.72 K, 1210.1 kPa, x2 = 0.119 | 63.25
318.73 K, 516.26 kPa, x2 = 0.259 | 20.71
318.73 K, 743.73 kPa, x2 = 0.449 | 27
318.73 K, 813.03 kPa, x2 = 0.698 | 24.02
318.73 K, 1463.2 kPa, x2 = 0.449 | 61.04
318.74 K, 559.65 kPa, x2 = 0.698 | 15.99
318.74 K, 743.48 kPa, x2 = 0.259 | 31.1
318.74 K, 1046.5 kPa, x2 = 0.259 | 46.72
318.74 K, 1058.5 kPa, x2 = 0.449 | 40.56
318.74 K, 1097.2 kPa, x2 = 0.874 | 28.27
318.74 K, 1544.9 kPa, x2 = 0.874 | 42.46
318.75 K, 622.85 kPa, x2 = 0.119 | 28
318.77 K, 762.25 kPa, x2 = 0.874 | 18.82
318.78 K, 525.03 kPa, x2 = 0.874 | 12.53
323.56 K, 1650.9 kPa, x2 = 0.698 | 54.16
323.62 K, 1184.6 kPa, x2 = 0.698 | 36.06
323.62 K, 2161.1 kPa, x2 = 0.874 | 63.75
323.67 K, 522.17 kPa, x2 = 0.449 | 17.97
323.67 K, 902.39 kPa, x2 = 0.119 | 42.05
323.67 K, 2803.5 kPa, x2 = 0.874 | 96.27
323.68 K, 525.72 kPa, x2 = 0.259 | 20.71
323.68 K, 569.78 kPa, x2 = 0.698 | 15.98
323.68 K, 758.4 kPa, x2 = 0.449 | 27
323.68 K, 828.96 kPa, x2 = 0.698 | 24.01
323.68 K, 1081.3 kPa, x2 = 0.449 | 40.55
323.69 K, 533.88 kPa, x2 = 0.874 | 12.53
323.69 K, 758.79 kPa, x2 = 0.259 | 31.1
323.69 K, 1070.4 kPa, x2 = 0.259 | 46.71
323.69 K, 1460 kPa, x2 = 0.259 | 70.1
323.69 K, 1502 kPa, x2 = 0.449 | 61.01
323.69 K, 2207.6 kPa, x2 = 0.698 | 81.35
323.7 K, 635.26 kPa, x2 = 0.119 | 27.99
323.7 K, 1243.5 kPa, x2 = 0.119 | 63.23
323.7 K, 1581.8 kPa, x2 = 0.874 | 42.45
323.71 K, 776.56 kPa, x2 = 0.874 | 18.81
323.73 K, 1120.2 kPa, x2 = 0.874 | 28.26
328.55 K, 1691.6 kPa, x2 = 0.698 | 54.15
328.58 K, 1209.7 kPa, x2 = 0.698 | 36.05
328.6 K, 543.23 kPa, x2 = 0.874 | 12.52
328.61 K, 531.32 kPa, x2 = 0.449 | 17.97
328.61 K, 772.98 kPa, x2 = 0.449 | 26.99
328.61 K, 1275.3 kPa, x2 = 0.119 | 63.21
328.62 K, 579.61 kPa, x2 = 0.698 | 15.98
328.62 K, 2220.5 kPa, x2 = 0.874 | 63.73
328.62 K, 2904.2 kPa, x2 = 0.874 | 96.19
328.63 K, 535.28 kPa, x2 = 0.259 | 20.7
328.63 K, 844.62 kPa, x2 = 0.698 | 24
328.63 K, 922.19 kPa, x2 = 0.119 | 42.04
328.63 K, 1094.6 kPa, x2 = 0.259 | 46.71
328.63 K, 1105.1 kPa, x2 = 0.449 | 40.54
328.63 K, 1499.1 kPa, x2 = 0.259 | 70.09
328.64 K, 647.48 kPa, x2 = 0.119 | 27.99
328.64 K, 773.73 kPa, x2 = 0.259 | 31.1
328.64 K, 1540.2 kPa, x2 = 0.449 | 60.98
328.64 K, 2275.8 kPa, x2 = 0.698 | 81.33
328.65 K, 1617.6 kPa, x2 = 0.874 | 42.43
328.66 K, 790.86 kPa, x2 = 0.874 | 18.81
328.67 K, 1142.6 kPa, x2 = 0.874 | 28.25
333.46 K, 1731.9 kPa, x2 = 0.698 | 54.13
333.56 K, 540.51 kPa, x2 = 0.449 | 17.96
333.57 K, 941.58 kPa, x2 = 0.119 | 42.02
333.57 K, 1235.3 kPa, x2 = 0.698 | 36.04
333.57 K, 2278.9 kPa, x2 = 0.874 | 63.71
333.57 K, 2342.7 kPa, x2 = 0.698 | 81.3
333.58 K, 544.62 kPa, x2 = 0.259 | 20.7
333.58 K, 1578 kPa, x2 = 0.449 | 60.96
333.58 K, 1734.6 kPa, x2 = 0.119 | 94.99
333.58 K, 2115 kPa, x2 = 0.449 | 91.6
333.58 K, 3002.9 kPa, x2 = 0.874 | 96.12
333.59 K, 659.59 kPa, x2 = 0.119 | 27.98
333.59 K, 787.46 kPa, x2 = 0.449 | 26.98
333.59 K, 788.83 kPa, x2 = 0.259 | 31.09
